Experiments:
Experiment in all cases: relative viability (nuclei count vs DMSO), 5 days (fraction); higher = more cells survive
[1] = compound: C#Cc1cccc(Nc2ncnc3cc(OCCOC)c(OCCOC)cc23)c1 [Erlotinib] + CC(=O)c1c(C)c2cnc(Nc3ccc(N4CCNCC4)cn3)nc2n(C2CCCC2)c1=O [Palbociclib] (partner 0.5 µM)
Summary of the method: (§1)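 Five library-drug doses in √10 steps were combined with a fixed anchor-drug dose, or a single drug was given alone, by pin tool to lung cancer cell lines in 1536-well plates the day after seeding. Nuclei were stained and counted after 5 days. Relative viability is the nuclei count in treated wells over that in vehicle wells, taken as the median of duplicate plates.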

[2] = compound: C#Cc1cccc(Nc2ncnc3cc(OCCOC)c(OCCOC)cc23)c1 [Erlotinib] + CS(=O)(=O)N1CCN(Cc2cc3nc(-c4cccc5[nH]ncc45)nc(N4CCOCC4)c3s2)CC1 [Pictilisib] (partner 1 µM)
Summary of the method: as §1

[3] = compound: C#Cc1cccc(Nc2ncnc3cc(OCCOC)c(OCCOC)cc23)c1 [Erlotinib] + Cc1cc(Nc2cc(N3CCN(C)CC3)nc(Sc3ccc(NC(=O)C4CC4)cc3)n2)n[nH]1 [Tozasertib] (partner 0.1 µM)
Summary of the method: as §1

[4] = compound: O=C(Nc1c[nH]nc1-c1nc2ccc(CN3CCOCC3)cc2[nH]1)NC1CC1 [AT9283] + Nc1ncn([C@H]2C[C@H](O)[C@@H](CO)O2)c(=O)n1 [Decitabine] (partner 2 µM)
Summary of the method: as §1

[5] = compound: O=C(Nc1c[nH]nc1-c1nc2ccc(CN3CCOCC3)cc2[nH]1)NC1CC1 [AT9283] + O=C(c1cc(Cc2n[nH]c(=O)c3ccccc23)ccc1F)N1CCN(C(=O)C2CC2)CC1 [Olaparib] (partner 8 µM)
Summary of the method: as §1

NCI-H647
relative viability ([1]; first compound 0.02 µM): 0.417 | relative viability ([1]; first compound 0.2 µM): 0.307 | relative viability ([1]; first compound 0.6325 µM): 0.562 | relative viability ([1]; first compound 2 µM): 0.316 | relative viability ([2]; first compound 0.02 µM): 0.445 | relative viability ([2]; first compound 0.2 µM): 0.359 | relative viability ([2]; first compound 0.6325 µM): 0.499 | relative viability ([2]; first compound 2 µM): 0.46 | relative viability ([3]; first compound 0.02 µM): 0.257 | relative viability ([3]; first compound 0.2 µM): 0.179 | relative viability ([3]; first compound 0.6325 µM): 0.28 | relative viability ([3]; first compound 2 µM): 0.136 | relative viability ([4]; first compound 0.003 µM): 0.427 | relative viability ([4]; first compound 0.03 µM): 0.401 | relative viability ([4]; first compound 0.09487 µM): 0.205 | relative viability ([4]; first compound 0.3 µM): 0.127 | relative viability ([5]; first compound 0.003 µM): 0.555 | relative viability ([5]; first compound 0.03 µM): 0.311 | relative viability ([5]; first compound 0.09487 µM): 0.0867 | relative viability ([5]; first compound 0.3 µM): 0.0596

NCI-H650
relative viability ([1]; first compound 0.02 µM): 0.317 | relative viability ([1]; first compound 0.2 µM): 0.341 | relative viability ([1]; first compound 0.6325 µM): 0.335 | relative viability ([1]; first compound 2 µM): 0.35 | relative viability ([2]; first compound 0.02 µM): 0.963 | relative viability ([2]; first compound 0.2 µM): 0.942 | relative viability ([2]; first compound 0.6325 µM): 0.904 | relative viability ([2]; first compound 2 µM): 0.936 | relative viability ([3]; first compound 0.6325 µM): 0.767 | relative viability ([3]; first compound 2 µM): 0.58 | relative viability ([4]; first compound 0.003 µM): 0.319 | relative viability ([4]; first compound 0.03 µM): 0.333 | relative viability ([4]; first compound 0.09487 µM): 0.229 | relative viability ([4]; first compound 0.3 µM): 0.162 | relative viability ([5]; first compound 0.003 µM): 0.396 | relative viability ([5]; first compound 0.03 µM): 0.399 | relative viability ([5]; first compound 0.09487 µM): 0.215 | relative viability ([5]; first compound 0.3 µM): 0.146

NCI-H661
relative viability ([1]; first compound 0.02 µM): 0.418 | relative viability ([1]; first compound 0.2 µM): 0.43 | relative viability ([1]; first compound 0.6325 µM): 0.383 | relative viability ([1]; first compound 2 µM): 0.355 | relative viability ([2]; first compound 0.02 µM): 0.333 | relative viability ([2]; first compound 0.6325 µM): 0.416 | relative viability ([2]; first compound 2 µM): 0.294 | relative viability ([3]; first compound 0.02 µM): 0.344 | relative viability ([3]; first compound 0.2 µM): 0.381 | relative viability ([3]; first compound 0.6325 µM): 0.341 | relative viability ([3]; first compound 2 µM): 0.394 | relative viability ([4]; first compound 0.003 µM): 0.579 | relative viability ([4]; first compound 0.03 µM): 0.422 | relative viability ([4]; first compound 0.09487 µM): 0.406 | relative viability ([4]; first compound 0.3 µM): 0.272 | relative viability ([5]; first compound 0.003 µM): 0.759 | relative viability ([5]; first compound 0.03 µM): 0.499 | relative viability ([5]; first compound 0.09487 µM): 0.371 | relative viability ([5]; first compound 0.3 µM): 0.418

NCI-H727
relative viability ([1]; first compound 0.02 µM): 0.615 | relative viability ([1]; first compound 0.2 µM): 0.513 | relative viability ([1]; first compound 0.6325 µM): 0.586 | relative viability ([1]; first compound 2 µM): 0.476 | relative viability ([2]; first compound 0.02 µM): 0.456 | relative viability ([2]; first compound 0.2 µM): 0.344 | relative viability ([2]; first compound 0.6325 µM): 0.346 | relative viability ([2]; first compound 2 µM): 0.339 | relative viability ([3]; first compound 0.02 µM): 0.616 | relative viability ([3]; first compound 0.2 µM): 0.51 | relative viability ([3]; first compound 0.6325 µM): 0.493 | relative viability ([3]; first compound 2 µM): 0.424 | relative viability ([4]; first compound 0.003 µM): 0.697 | relative viability ([4]; first compound 0.03 µM): 0.642 | relative viability ([4]; first compound 0.09487 µM): 0.754 | relative viability ([4]; first compound 0.3 µM): 0.517 | relative viability ([5]; first compound 0.003 µM): 0.84 | relative viability ([5]; first compound 0.03 µM): 0.768 | relative viability ([5]; first compound 0.09487 µM): 0.494 | relative viability ([5]; first compound 0.3 µM): 0.496

NCI-H838
relative viability ([1]; first compound 0.02 µM): 0.225 | relative viability ([1]; first compound 0.2 µM): 0.205 | relative viability ([1]; first compound 0.6325 µM): 0.225 | relative viability ([1]; first compound 2 µM): 0.211 | relative viability ([2]; first compound 0.02 µM): 0.471 | relative viability ([2]; first compound 0.2 µM): 0.454 | relative viability ([2]; first compound 0.6325 µM): 0.503 | relative viability ([2]; first compound 2 µM): 0.477 | relative viability ([3]; first compound 0.02 µM): 0.293 | relative viability ([3]; first compound 0.2 µM): 0.273 | relative viability ([3]; first compound 0.6325 µM): 0.283 | relative viability ([3]; first compound 2 µM): 0.25 | relative viability ([4]; first compound 0.003 µM): 0.436 | relative viability ([4]; first compound 0.03 µM): 0.293 | relative viability ([4]; first compound 0.09487 µM): 0.265 | relative viability ([4]; first compound 0.3 µM): 0.226 | relative viability ([5]; first compound 0.003 µM): 0.745 | relative viability ([5]; first compound 0.03 µM): 0.323 | relative viability ([5]; first compound 0.09487 µM): 0.183 | relative viability ([5]; first compound 0.3 µM): 0.164

NCI-H1355
relative viability ([1]; first compound 0.02 µM): 0.387 | relative viability ([1]; first compound 0.2 µM): 0.344 | relative viability ([1]; first compound 0.6325 µM): 0.325 | relative viability ([1]; first compound 2 µM): 0.269 | relative viability ([2]; first compound 0.02 µM): 0.499 | relative viability ([2]; first compound 0.2 µM): 0.392 | relative viability ([2]; first compound 0.6325 µM): 0.407 | relative viability ([2]; first compound 2 µM): 0.312 | relative viability ([3]; first compound 0.02 µM): 0.567 | relative viability ([3]; first compound 0.2 µM): 0.538 | relative viability ([3]; first compound 0.6325 µM): 0.4 | relative viability ([3]; first compound 2 µM): 0.266 | relative viability ([4]; first compound 0.003 µM): 0.341 | relative viability ([4]; first compound 0.03 µM): 0.357 | relative viability ([4]; first compound 0.09487 µM): 0.322 | relative viability ([4]; first compound 0.3 µM): 0.195 | relative viability ([5]; first compound 0.003 µM): 0.803 | relative viability ([5]; first compound 0.03 µM): 0.708 | relative viability ([5]; first compound 0.09487 µM): 0.329 | relative viability ([5]; first compound 0.3 µM): 0.246

NCI-H1395
relative viability ([1]; first compound 0.02 µM): 0.619 | relative viability ([1]; first compound 0.2 µM): 0.532 | relative viability ([1]; first compound 0.6325 µM): 0.657 | relative viability ([1]; first compound 2 µM): 0.571 | relative viability ([2]; first compound 0.02 µM): 0.71 | relative viability ([2]; first compound 0.2 µM): 0.638 | relative viability ([2]; first compound 0.6325 µM): 0.567 | relative viability ([2]; first compound 2 µM): 0.733 | relative viability ([3]; first compound 0.02 µM): 0.837 | relative viability ([3]; first compound 0.2 µM): 0.772 | relative viability ([3]; first compound 0.6325 µM): 0.712 | relative viability ([3]; first compound 2 µM): 0.566 | relative viability ([4]; first compound 0.003 µM): 0.819 | relative viability ([4]; first compound 0.03 µM): 0.604 | relative viability ([4]; first compound 0.09487 µM): 0.42 | relative viability ([4]; first compound 0.3 µM): 0.385 | relative viability ([5]; first compound 0.003 µM): 0.414 | relative viability ([5]; first compound 0.03 µM): 0.46 | relative viability ([5]; first compound 0.09487 µM): 0.38 | relative viability ([5]; first compound 0.3 µM): 0.358

NCI-H1437
relative viability ([1]; first compound 0.02 µM): 0.308 | relative viability ([1]; first compound 0.2 µM): 0.27 | relative viability ([1]; first compound 0.6325 µM): 0.319 | relative viability ([1]; first compound 2 µM): 0.281 | relative viability ([2]; first compound 0.02 µM): 0.431 | relative viability ([2]; first compound 0.2 µM): 0.408 | relative viability ([2]; first compound 0.6325 µM): 0.482 | relative viability ([2]; first compound 2 µM): 0.347 | relative viability ([3]; first compound 0.02 µM): 0.406 | relative viability ([3]; first compound 0.2 µM): 0.403 | relative viability ([3]; first compound 0.6325 µM): 0.448 | relative viability ([3]; first compound 2 µM): 0.357 | relative viability ([4]; first compound 0.003 µM): 0.47 | relative viability ([4]; first compound 0.03 µM): 0.599 | relative viability ([4]; first compound 0.09487 µM): 0.426 | relative viability ([4]; first compound 0.3 µM): 0.306 | relative viability ([5]; first compound 0.003 µM): 0.616 | relative viability ([5]; first compound 0.03 µM): 0.549 | relative viability ([5]; first compound 0.09487 µM): 0.3 | relative viability ([5]; first compound 0.3 µM): 0.277

Source: the supplement of paper PMC10307832
